Laboratory results published in patent US20250049926A1, “PHARMACEUTICAL COMPOSITIONS COMPRISING MODIFIED BETACYCLODEXTRINS” (priority 2021, published 2025).

Experiment: Solubility measurement of saturated solutions by HPLC at room temperature (0 h and 24 h)
Type: physicochemical
Settings: buffered water with excipients, pH 4, aqueous with cosolvent or surfactant or cyclodextrin, thermodynamic from solid
Protocol: The vial contents are prepared starting with 2.5 mg of the compound of formula (I). The primary excipient is added followed by any further excipient and then the buffered water to a total volume of 500 μL. All components are mixed in a vortex mixer for ca. 5 minutes. If everything is dissolved an additional 2.5 mg of the compound of formula (I) is added and vortexed again for ca. 5 minutes. This is repeated until a saturated solution (suspension) is obtained.
The solubility in vial 1 is measured immediately as described below.
To measure solubility 400 μl of the suspension are taken and placed in a centrifugation device above a 0.2 μm filter. Centrifugation is performed at 14,000 rpm for 10 minutes and if necessary repeated for additional 10 minutes. The filter is removed from the vial and 100 μL is taken and diluted with 400 μL high-performance liquid chromatography (HPLC) diluent solution (see below) or diluted with 900 μL HPLC diluent solution in the event 5 mg or more of the compound of formula (I) was used. The pH of the solution is measured. A further 100 μL of the vial solution is taken and diluted with 400 μL of HPLC diluent solution or diluted with 900 μL HPLC diluent solution in the event 5 mg or more of the compound of formula (I) was used. The assay of the solution versus control stock solution is measured by HPLC and the solubility is calculated as described below. The HPLC diluent solution is 0.1% trifluoroacetic acid (TFA) in acetonitrile (ACN) and water (1:1 v/v).
All solubility tests are performed at room temperature.
The HPLC method for assessing solubility is performed as follows:
The solubility of the compound of formula (I) is calculated according to the following formula:
[formula] • Solubility=solubility of compound of formula (I) (mg/mL) • A=peak area of the compound of the sample tested • a=value of constant “a” in Linear regression equation y=ax+b • b=value of constant “b” in Linear regression equation y=ax+b • n=dilution time • Formulations for stability assessment are prepared as follows: […]

solubility at 24 h (CBS 30 mM pH 4.0, NaCl 3 mg/mL, SBE-beta-CD 40 mg/mL + Kollidon 12 P188 5 mg/mL, pH exp 4.2): 3710 µg/mL | solubility at 0 h (CBS 30 mM pH 4.0, NaCl 3 mg/mL, SBE-beta-CD 40 mg/mL + Na CMC 5 mg/mL, pH exp 4.1): 1710 µg/mL | solubility at 24 h (CBS 30 mM pH 4.0, NaCl 3 mg/mL, SBE-beta-CD 40 mg/mL + Na CMC 5 mg/mL, pH exp n. a.): 2670 µg/mL | solubility at 0 h (CBS 30 mM pH 4.0, NaCl 3 mg/mL, SBE-beta-CD 40 mg/mL + PEG 400 1 mg/mL, pH exp 4.1): 2480 µg/mL | solubility at 24 h (CBS 30 mM pH 4.0, NaCl 3 mg/mL, SBE-beta-CD 40 mg/mL + PEG 400 1 mg/mL, pH exp 4.2): 3730 µg/mL | solubility at 0 h (CBS 30 mM pH 4.0, NaCl 3 mg/mL, SBE-beta-CD 40 mg/mL + PEG 400 5 mg/mL, pH exp 4.1): 2340 µg/mL | solubility at 24 h (CBS 30 mM pH 4.0, NaCl 3 mg/mL, SBE-beta-CD 40 mg/mL + PEG 400 5 mg/mL, pH exp 4.2): 3750 µg/mL | solubility at 0 h (CBS 30 mM pH 4.0, NaCl 3 mg/mL, SBE-beta-CD 40 mg/mL + PEG 400 10 mg/mL, pH exp 4.1): 2590 µg/mL | solubility at 24 h (CBS 30 mM pH 4.0, NaCl 3 mg/mL, SBE-beta-CD 40 mg/mL + PEG 400 10 mg/mL, pH exp 4.2): 3790 µg/mL | solubility at 0 h (CBS 30 mM pH 4.0, NaCl 3 mg/mL, SBE-beta-CD 40 mg/mL + PEG 400 20 mg/mL, pH exp 4.1): 2570 µg/mL | solubility at 24 h (CBS 30 mM pH 4.0, NaCl 3 mg/mL, SBE-beta-CD 40 mg/mL + PEG 400 20 mg/mL, pH exp 4.2): 3810 µg/mL | solubility at 0 h (CBS 30 mM pH 4.0, NaCl 3 mg/mL, SBE-beta-CD 40 mg/mL + PEG 400 30 mg/mL, pH exp 4.1): 2670 µg/mL | solubility at 24 h (CBS 30 mM pH 4.0, NaCl 3 mg/mL, SBE-beta-CD 40 mg/mL + PEG 400 30 mg/mL, pH exp 4.2): 3860 µg/mL | solubility at 0 h (CBS 30 mM pH 4.0, NaCl 3 mg/mL, SBE-beta-CD 40 mg/mL + PEG 4000 5 mg/mL, pH exp 4.1): 2420 µg/mL | solubility at 24 h (CBS 30 mM pH 4.0, NaCl 3 mg/mL, SBE-beta-CD 40 mg/mL + PEG 4000 5 mg/mL, pH exp 4.2): 3670 µg/mL | solubility at 0 h (CBS 30 mM pH 4.0, NaCl 3 mg/mL, SBE-beta-CD 40 mg/mL + Soybean lecithin 10 mg/mL, pH exp 4.1): 2520 µg/mL | solubility at 24 h (CBS 30 mM pH 4.0, NaCl 3 mg/mL, SBE-beta-CD 40 mg/mL + Soybean lecithin 10 mg/mL, pH exp 4.3): 3600 µg/mL | solubility at 0 h (CBS 30 mM pH 4.0, NaCl 3 mg/mL, SBE-beta-CD 40 mg/mL + Tween 80 5 mg/mL, pH exp 4.1): 2950 µg/mL | solubility at 24 h (CBS 30 mM pH 4.0, NaCl 3 mg/mL, SBE-beta-CD 40 mg/mL + Tween 80 5 mg/mL, pH exp 4.2): 4040 µg/mL | solubility at 0 h (CBS 30 mM pH 4.0, NaCl 6 mg/mL, SBE-beta-CD 40 mg/mL + Kollidon 12 PF 2.5 mg/mL, pH exp 4.1): 2370 µg/mL | solubility at 24 h (CBS 30 mM pH 4.0, NaCl 6 mg/mL, SBE-beta-CD 40 mg/mL + Kollidon 12 PF 2.5 mg/mL, pH exp 4.3): 3690 µg/mL | solubility at 0 h (CBS 30 mM pH 4.0, NaCl 6 mg/mL, SBE-beta-CD 40 mg/mL + Kollidon 12 PF 5 mg/mL, pH exp 4.0): 2510 µg/mL | solubility at 24 h (CBS 30 mM pH 4.0, NaCl 6 mg/mL, SBE-beta-CD 40 mg/mL + Kollidon 12 PF 5 mg/mL, pH exp 4.2): 3750 µg/mL | solubility at 0 h (CBS 30 mM pH 4.0, NaCl 6 mg/mL, SBE-beta-CD 40 mg/mL + Kollidon 12 PF 10 mg/mL, pH exp 4.1): 2520 µg/mL | solubility at 24 h (CBS 30 mM pH 4.0, NaCl 6 mg/mL, SBE-beta-CD 40 mg/mL + Kollidon 12 PF 10 mg/mL, pH exp 4.2): 3700 µg/mL | solubility at 0 h (CBS 30 mM pH 4.0, NaCl 6 mg/mL, SBE-beta-CD 40 mg/mL + Propylene glycol 5 mg/mL, pH exp 4.1): 2360 µg/mL | solubility at 24 h (CBS 30 mM pH 4.0, NaCl 6 mg/mL, SBE-beta-CD 40 mg/mL + Propylene glycol 5 mg/mL, pH exp 4.3): 3820 µg/mL | solubility at 0 h (CBS 30 mM pH 4.0, NaCl 6 mg/mL, SBE-beta-CD 40 mg/mL + Propylene glycol 10 mg/mL, pH exp 4.1): 2420 µg/mL
Compound: COc1cc(N2CCNCC2)ccc1Nc1ncc2c(n1)-n1ccc(C(=O)Nc3c(C)cccc3C)c1CC2 [compound of formula (I)]
